8 compounds from ChEMBL document CHEMBL1857833, “Screening and optimization of specific chemical series against human African Trypanosomiasis (HAT)” can be followed below.

Values after ≈ are worked out from the molar mass of the structure shown. Values joined by “and” are separate entries in the source; they are usually repeats but may differ in a detail not shown here. Identical values can stand only once.

The subject of series [1] is Trypanosoma brucei. Kind of series: DNDI: Inhibition of Human African Trypanosomiasis, Cross 22, in vitro. The series is classed as functional, organism-based.
Series [2] in a line: DNDI: Cytotoxicity against L929 mouse fibroblasts, 72 hour. The class given is toxicity, cell-based. The conditions noted are these: mouse, L929 mouse fibroblasts.
A short description of series [3]: DNDI: Cytotoxicity against L929 mouse fibroblasts, CYTO-SP, 24 hour. The series is classed as toxicity, cell-based. The note with it: mouse, L929 mouse fibroblasts.
For series [4] the following is noted: mouse, microsomes, 1 µM.
Description: (§2) DNDI: in vitro intrinsic clearance in mouse liver microsomes at a concentration of 1uM
Series [5] can be described thus: DNDI: Solubility in phosphate buffered saline at pH7.4 measured by nephelometry at room temperature (NEPH-RT). The class given is physicochemical. The conditions noted are these: pH 7.4.
The subject of series [6] is Trypanosoma brucei. As to the kind of experiment: DNDI: Inhibition of Human African Trypanosomiasis, SBRI 427, in vitro. The class given is functional, organism-based.
Series [7] in a line: in vitro. The conditions noted are these: human, liver microsomes, CLint in vitro. Background: Microsomes from liver hold many membrane-bound enzymes, among them those of drug oxidation.
Description: DNDI: in vitro intrinsic clearance in human liver microsomes at a concentration of 1uM
The nature of series [8]: DNDI: Lipophilicity measured in Chromatographic hydrophobicity index (CHI) assay, pH 7.4. The series is classed as physicochemical. The conditions noted are these: buffer.
Series [9] in a line: in vitro. The note with it: human, liver microsomes, t (1 / 2).
Description: DNDI: half life in human liver microsomes at a concentration of 1uM
For series [10] the following is noted: mouse, microsomes, 1 µM. This is another data set of the same source.
Description: (§3) DNDI: half life in mouse liver microsomes at a concentration of 1uM
A short description of series [11]: in vitro. The conditions noted are these: mouse, liver microsomes, t (1 / 2).
Description: as §3
In series [12] the test system is Trypanosoma brucei. Kind of series: (§1) DNDI: Mean survival time in days (MSD) of mice after intraperitoneal injection of Human African Trypanosomiasis (HAT), EATRO 110, in vivo at 20 mg/kg/day for 4 days. The series is classed as functional, Mus musculus.
For series [13], the system named is Trypanosoma brucei. The series is described as §1. The class given is functional, Mus musculus. The source holds these as a separate data set.
A short description of series [14]: DNDI: % of compound remaining in rat S9 microsomes at a concentration of 1uM. The class given is ADME, subcellular, Liver, S9 fraction.
Series [15] is described as follows: DNDI: % of compound remaining in mouse S9 microsomes at a concentration of 1uM after 60 mins. The class given is ADME, subcellular, Liver, S9 fraction.
Series [16] is described as follows: in vitro. The note with it: mouse, liver microsomes.
Description: as §2
A short description of series [17]: DNDI: Solubility in phosphate buffered saline at pH7.4 measured by optical density (turbidimetry) at room temperature (OD-RT). The series is classed as physicochemical. The note with it: pH 7.4.
In a further series the test system is Plasmodium falciparum. Kind of series: DNDI: Inhibition of the malaria parasite Plasmodium falciparum, in vitro. The series is classed as functional, organism-based. The conditions noted are these: K1.
The test system of series [18] is Trypanosoma brucei. Kind of series: DNDI: Inhibition of Human African Trypanosomiasis, EATRO 110, in vitro. The class given is functional, organism-based.
The nature of series [19]: DNDI: Cytotoxicity against L-6 rat myoblasts from skeletal muscle cells. The series is classed as toxicity, cell-based, L6. The conditions noted are these: L-6 rat skeletal muscle myoblasts.
The nature of series [20]: DNDI: in vitro intrinsic clearance in mouse liver microsomes at a concentration of 10uM. The series is classed as ADME, Microsome. The note with it: read-out: CLint in vitro.
Series [21] in a line: DNDI: in vitro intrinsic clearance in human liver microsomes at a concentration of 10uM. The series is classed as ADME, Microsome.
The next series relates to Trypanosoma cruzi. As to the kind of experiment: DNDI: Inhibition of Chagas Disease parasite Trypanosoma cruzi (Tulahuen LacZ, Clone C4), in vitro. The series is classed as functional, organism-based.
Series [22] has as its system Trypanosoma brucei rhodesiense. Kind of series: DNDI: Inhibition of Human African Trypanosomiasis (HAT), STIB 900, in vitro. The series is classed as functional, organism-based.
Another series has as its system Leishmania donovani. Kind of series: DNDI: Inhibition of formation of Leishmania donovani (strain MHOM/ET/67/L82) axenic amastigotes, in vitro. The class given is functional, organism-based.
A short description of series [23]: DNDI: half life in human liver microsomes at a concentration of 10uM. The class given is ADME, Microsome.
Series [24] in a line: DNDI: half life in mouse liver microsomes at a concentration of 10uM. The class given is ADME, Microsome.
Setting [25] is: Trypanosoma brucei, SBRI 427, read-out: IC50.

Turning to `CCCCOc1ccc(-c2nc(CNC3CCCCCC3)co2)cc1`, the IC50 in the series with Trypanosoma brucei [1] is 0.4 µg/mL (≈ 1.17 µM); with Trypanosoma brucei [6], 0.3 µg/mL and 0.39 µg/mL; in the series with Trypanosoma brucei [6] (setting [25]), 0.38 µg/mL (≈ 1.11 µM). The IC50 at 72 h in series [2] was less than 3.13 µg/mL. This compound also registered a concentration for half-maximal inhibition (IC50) at 24 h in [3] of 11.7 µg/mL (≈ 34.2 µM). Moreover, the CLint in vitro in series [4] was 32 µL/min/mg and 11 µL/min/mg. For the same compound, the solubility (kinetic) in series [5] is less than 1 µM. This compound registered a microsomal CLint at 1 µM in the series “in vitro [7]” of 38 µL/min/mg. This compound displayed a chromatographic logD in series [8] of 5.34. The same compound had a half-life at 1 µM in the series “in vitro [9]” of 23 min. Besides, the “t (1 / 2)” value in series [10] is 26 min and 78 min.

`CCCCCC(C)NCc1coc(-c2ccccc2Oc2ccccc2)n1` (stereo unspecified): the half-inhibitory concentration (IC50) at 72 h in series [2] turned out to be 6.3 µg/mL (≈ 17.3 µM). Moreover, in [4], the CLint in vitro is 220 µL/min/mg. The same compound registered a half-life at 1 µM in the series “in vitro [11]” of 4 min. Moreover, the IC50 in the series with Trypanosoma brucei [6] (setting [25]) is 2.98 µg/mL (≈ 8.18 µM). Moreover, the MSD is 5 days in the series on Trypanosoma brucei [12] and 4 days with Trypanosoma brucei [13].

Compound `CC1CC(NCc2coc(-c3ccc(OC(C)C)cc3)n2)CC(C)(C)C1` (stereo unspecified) registered an IC50 at 72 h in [2] of 1.51 µg/mL (≈ 4.24 µM). Further, in [4], the CLint in vitro was determined as 26 µL/min/mg. In addition, the half-life at 1 µM in the series “in vitro [11]” amounted to 33 min. In the series on Trypanosoma brucei [6] (setting [25]), the IC50 is 0.79 µg/mL (≈ 2.22 µM). Further, the MSD in the series with Trypanosoma brucei [12] was 3.5 days; in the series on Trypanosoma brucei [13] it was 4 days.

In series [2], `COc1ccc(/C(=N/O)Nc2cccc(C(F)(F)F)c2)cc1` showed a half-maximal inhibitory concentration (IC50) at 72 h of 8.11 µg/mL (≈ 26.1 µM). Moreover, the CLint in vitro in series [4] was found to be 319 µL/min/mg. For the same compound, the half-life at 1 µM in the series “in vitro [11]” was determined as 3 min. Besides, the kinetic solubility in [5] turned out to be 25 µM (≈ 7.76 µg/mL). This compound had an amount remaining at 1 µM in series [14] of 0%. The MSD with Trypanosoma brucei [12] and in the series with Trypanosoma brucei [13] was 5 days throughout. The same compound displayed a chromatographic logD in series [8] of 3.67. The compound further returned a fraction remaining at 1 h, 1 µM in series [15] of 0%.

`COc1ccccc1CNC(CCc1ccccc1)c1nc(Cc2ccccc2)c(N2CCCCC2)o1` (stereo unspecified): the 50% inhibitory concentration (IC50) at 72 h in [2] was found to be 8.24 µg/mL (≈ 16.6 µM). This compound came in with a microsomal CLint at 1 µM in the series “in vitro [16]” of 471 µL/min/mg. In addition, the CLint in vitro in series [4] was 487 µL/min/mg. Besides, the half-life at 1 µM in “in vitro [11]” came to 2 min. In addition, the solubility (kinetic) in [5] is 2 µM (≈ 0.991 µg/mL). In the series with Trypanosoma brucei [6] (setting [25]), the IC50 came out at 4.41 µg/mL (≈ 8.9 µM).

Regarding `COc1cc(C)ccc1Oc1ncccc1/C(=N/O)NC1CCCCC1`, the IC50 at 72 h in [2] is more than 10 µg/mL. Also, the concentration for half-maximal inhibition (IC50) at 24 h in series [3] was more than 50 µg/mL. Also, the kinetic solubility in series [17] and in series [5] was 25 µM (≈ 8.89 µg/mL) in each case. Besides, the 50% inhibitory concentration (IC50) was more than 5 µg/mL in the series on Plasmodium falciparum; 0.48 µg/mL (≈ 1.35 µM) with Trypanosoma brucei [18]; 76.2 µg/mL (≈ 214 µM) in [19]; 0.15 µg/mL (≈ 0.422 µM) in the series with Trypanosoma brucei [6]; 0.25 µg/mL (≈ 0.703 µM) with Trypanosoma brucei [6] (setting [25]); more than 30 µg/mL in the series on Trypanosoma cruzi. In addition, the values for the half-maximal inhibitory concentration (IC50) (in series [22]; in the series on Leishmania donovani) were 57.9 µg/mL (≈ 163 µM) and more than 90 µg/mL, respectively. Besides, the CLint in vitro was 76 µL/min/mg in [4] and 19 µL/min/mg in [21]. Further, in “in vitro [11]”, the half-life at 1 µM worked out at 11 min. Also, the microsomal CLint at 10 µM in series [20] was determined as 76 µL/min/mg. In addition, the amount remaining at 1 µM in [14] stood at 0.111%. Further, in the series with Trypanosoma brucei [13], the MSD stood at 5.5 days. The chromatographic logD in series [8] is 4. In series [8], this compound yielded a logD of 4.04. Moreover, the values for the half-life at 10 µM in series [23] and in [24] were 154 min and 38 min, respectively. The compound also gave a share remaining at 1 h, 1 µM in [15] of 18.3%.

In [2], `CCCCCOc1ccc(-c2nc(CNC(C)CCCCC)co2)cc1` (stereo unspecified) returned an IC50 at 72 h of less than 3.13 µg/mL. The IC50 at 24 h in series [3] amounted to 32.4 µg/mL (≈ 90.4 µM). The compound further had a CLint in vitro in series [4] of 13 µL/min/mg. In addition, in “in vitro [11]”, the half-life at 1 µM amounted to 68 min. Moreover, the IC50 in the series with Trypanosoma brucei [6] (setting [25]) was 0.33 µg/mL (≈ 0.92 µM). The compound further showed a fraction remaining at 1 µM in series [14] of 0.555%. Moreover, the amount remaining at 1 h, 1 µM in series [15] is 49.7%.

As for `CCCCOc1ccc(-c2nc(CNC3CC(C)CC(C)(C)C3)co2)cc1` (stereo unspecified), the IC50 was 0.61 µg/mL (≈ 1.65 µM) in the series with Trypanosoma brucei [1]; 0.39 µg/mL and 0.47 µg/mL and 1.12 µg/mL in the series on Trypanosoma brucei [6]. In series [2], this compound registered a concentration for half-maximal inhibition (IC50) at 72 h of less than 3.13 µg/mL. The compound also returned an IC50 at 24 h in [3] of 20.9 µg/mL (≈ 56.4 µM). This compound also showed a microsomal CLint at 1 µM in the series “in vitro [16]” of 6 µL/min/mg. Moreover, the CLint in vitro in series [4] was found to be 8 µL/min/mg. This compound also returned a half-life at 1 µM in “in vitro [11]” of 140 min. In series [10], the “t (1 / 2)” value is 113 min.

The IC50 is the point on the concentration scale where inhibition reaches its midpoint. One may read the solubility (kinetic) as solubility judged after dilution from a stock solution rather than from solid. By chromatographic logD is commonly meant a lipophilicity value derived from retention on a column. One may read the half-life as the time in which the quantity being followed falls by half. The term amount remaining denotes the share of the starting amount still present when the sample was taken. As a reminder, the logD is the decadic logarithm of the distribution of all forms, ionised or not, between an organic phase and buffer at a given pH. A high value points to higher lipophilicity.
